Reference: patent publication US7550613B2, “Compounds” (Pronova Biopharma Norge AS, priority 2005, dated 2009)
Where two headings read alike, the source gives them in different places.

How the values were obtained:
[1] = Body weight and food consumption during 2 weeks of diet intervention after 8 weeks of HF diet; type: in vivo, adipose prone mice of the C57BL/6J strain; settings: FIG. 10; last 2 weeks of experimental diets after 8 weeks HF diet; PRBs 1.5% of fat content, rosiglitazone 100 mg/KG diet
Procedure: The animals (n=8 in each group) were fed high fat diet (fat constituting 60% of total calories, the same diet as used in Block 5) for 8 weeks. Thereafter they were given the PRBs in a dose of 1.5% of the fat content of the diet for another two weeks. The rosiglitazone group was given an amount of 100 mg/KG diet. The control groups continued with either only high fat diet or standard chow.

PPARα receptor = target: T1, PPARα receptor (Rattus norvegicus, UniProt P37230); settings: rat liver cells (Pawar & Jump 2003); cited from earlier work
T1 construct: host or cells: rat liver cells
T1 sequence (P37230 1-468): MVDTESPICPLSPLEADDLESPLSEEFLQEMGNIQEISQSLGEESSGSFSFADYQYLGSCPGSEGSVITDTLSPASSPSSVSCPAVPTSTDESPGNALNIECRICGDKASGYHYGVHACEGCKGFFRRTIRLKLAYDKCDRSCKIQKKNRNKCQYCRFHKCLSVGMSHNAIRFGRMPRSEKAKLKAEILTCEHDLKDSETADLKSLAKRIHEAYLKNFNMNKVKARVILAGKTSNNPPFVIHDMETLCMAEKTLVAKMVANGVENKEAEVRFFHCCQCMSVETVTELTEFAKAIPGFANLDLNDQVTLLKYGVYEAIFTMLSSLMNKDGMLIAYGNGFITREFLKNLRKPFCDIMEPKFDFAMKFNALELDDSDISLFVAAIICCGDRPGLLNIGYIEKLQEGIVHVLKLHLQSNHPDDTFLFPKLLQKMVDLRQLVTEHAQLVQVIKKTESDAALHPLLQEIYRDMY

[2] = Vaagenes 1999; cited from earlier work
[3] = Effect of DHA derivatives in adipose prone mice during 4 months of dietary interventions (Example 5a); type: in vivo, male C57BL/6 mice; parameters: AUC: unit not given beside the values; settings: for Insulin: plasma
Procedure: All experiments were performed on male C57BL/6 mice, either a substrain C57BL/N (supplier: Charles River, Germany, n=160, experiments A-C, see below), or a substrain C57BL/6J (supplier: the Jackson laboratory, Bar Harbor, Me., USA, n=32, experiment D). Total numbers of animals used were higher (n=170 and 36, respectively), because of culling. In the latter case, animals were bred for several generations (<20) at the Institute of Physiology. At the beginning of the treatment, animals were 14-week-old and their body weight range was 23.6-27.1 g. One week before the study start, animals were sorted according to their body weight and assigned to subgroups (n=8) of similar mean body weight. This method allowed for culling of about 5-10% of animals showing the lowest and highest body weight, respectively. The animals eliminated from the study at this stage were sacrificed by cervical dislocation. Complete health check of mice was performed by the supplier Charles River and at the start of study serological tests were performed by ANLAB (Prague, Czech Republic). In addition, regular health checks were performed in the animal house in 3-mo-intervals using sentinel mice and serological examinations (ANLAB). In all the tests, the animals were free of specific pathogens.
• (i) Chow diet (ssniff R/M-H from SSNIFF Spezialdieten Gmbh, Soest, Germany; see also http://ssniff.de) with protein, fat and carbohydrate forming 33, 9, and 58 energy %, respectively • (ii) High-fat diet prepared in the laboratory (cHF diet) with protein, fat and carbohydrate forming 15, 59, and 26 energy %, respectively, and well characterized fatty acid composition (with most of the lipids coming from corn oil; see Ruzickova 2004) • (iii) cHF diets in which 0.15, 0.5, and 1.5% of fat (specifically the corn oil constituent) was replaced by various PRB-compounds, namely PRB1, PRB2, PRB5, PRB7, and PRB8, or by DHA. All these compounds were in the form of ethyl esters, provided by Pronova Biocare a.s. in sealed containers. Chemical composition of the PRB-compounds was unknown to the laboratory performing the experiments (Institute of Physiology, Academy of Sciences Prague, Czech Republic).
The study was based on 4 individual experiments. In each of the experiments, different PRB-compounds (or DHA, respectively) admixed to cHF diet in three different concentrations (0.15, 0.5, and 1.5% of the fat content) were tested. In each experiment, a subgroup of plain cHF diet-fed mice was included and served as a control. Mice were caged in groups of 4 and fed standard chow diet until 3 mo of age, when animals (n=8-13) were randomly assigned to the different test diets. After 2 mo on this new diet (at 5 mo of age), animals were fasted overnight and in the morning, intraperitoneal Glucose Tolerance Test (GTT) was performed. Animals were sacrificed after 4 months on the experimental diets, at 7 mo of age, and the end-point analysis were performed.

PPARγ = target: T2, PPARγ (Homo sapiens, UniProt P37231); assay: Affinity testing in transfected cells (release of luciferase); type: cell-based; settings: FIG. 8; 10 μM of PRBs
T2 construct: For full length PPAR transfection studies, each well received 5 μg reporter construct; expressed in transfected cells; host or cells: COS-1 cells
T2 sequence (P37231 1-505): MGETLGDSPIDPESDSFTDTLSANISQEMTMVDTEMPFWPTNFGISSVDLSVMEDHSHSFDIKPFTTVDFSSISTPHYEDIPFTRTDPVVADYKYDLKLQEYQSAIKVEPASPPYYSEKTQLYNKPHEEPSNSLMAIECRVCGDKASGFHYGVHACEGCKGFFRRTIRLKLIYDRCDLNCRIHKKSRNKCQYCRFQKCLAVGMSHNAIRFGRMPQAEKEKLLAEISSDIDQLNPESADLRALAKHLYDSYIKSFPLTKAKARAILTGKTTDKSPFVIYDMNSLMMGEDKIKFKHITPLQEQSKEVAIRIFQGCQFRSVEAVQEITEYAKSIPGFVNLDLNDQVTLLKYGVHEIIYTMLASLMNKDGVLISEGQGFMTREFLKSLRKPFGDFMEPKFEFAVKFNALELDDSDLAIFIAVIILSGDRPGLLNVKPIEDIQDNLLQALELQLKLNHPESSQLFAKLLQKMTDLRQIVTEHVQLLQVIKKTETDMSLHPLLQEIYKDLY
Procedure: Release of luciferase is correlated to transcription of genes. Binding of a ligand to a nuclear receptor such as PPARγ induces transcription of the respective gene thereby releasing luciferase. This technique therefore provides a measure of ligand affinity to the receptor as well as activation of the responsible gene.
Transient transfection of COS-1 cells was performed in 6-well plates as described by Graham and van der Eb (Graham). For full length PPAR transfection studies, each well received 5 μg reporter construct, 2.5 μg pSV-β-galactosidase as an internal control, 0.4 μg pSG5-PPARγ2. The cells were harvested after 72 h, and the luciferase activity was measured according to the protocol (Promega). The luciferase activity was normalised against β-galactosidase activity. The adipocytes were transfected at D11 of differentiation using 16 μl LipofectaminPlus reagent, 4 μl Lipofectamine (Life Technologies Inc.), 0.2 μg pSG5-PPARγ, and 100 ng pTK Renilla luciferase as control of transfection afficiency. […] The luciferase activities were measured as recommended by the manufacturer (Dual Luciferase assay, Promega). […]
Fatty acids (BRL or DHA) and PRBs (stock solutions) were solubilized to 0.1 M final concentration in DMSO. […] Luciferase activity was measured using a luminometer (TD-20/20 luminometer; Turner Designs, Sunnycvale, Calif.) and normalized against protein content.

PPARα = target: T3, PPARα (Homo sapiens, UniProt Q07869); settings: Larsen 2005; cited from earlier work
T3 sequence (Q07869 1-468): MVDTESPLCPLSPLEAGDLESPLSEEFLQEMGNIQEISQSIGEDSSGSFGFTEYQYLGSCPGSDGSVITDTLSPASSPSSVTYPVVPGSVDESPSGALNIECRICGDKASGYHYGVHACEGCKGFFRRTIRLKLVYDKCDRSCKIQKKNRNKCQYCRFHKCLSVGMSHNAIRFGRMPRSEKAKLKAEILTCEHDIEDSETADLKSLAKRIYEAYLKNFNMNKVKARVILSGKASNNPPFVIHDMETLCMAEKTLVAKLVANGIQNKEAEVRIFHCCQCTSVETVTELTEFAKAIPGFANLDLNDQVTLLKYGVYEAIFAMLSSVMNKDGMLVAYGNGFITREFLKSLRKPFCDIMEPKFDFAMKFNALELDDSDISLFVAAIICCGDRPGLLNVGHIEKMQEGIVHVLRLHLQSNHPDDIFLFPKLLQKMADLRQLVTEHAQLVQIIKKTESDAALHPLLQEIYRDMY

platelet aggregation [4] = settings: in vitro (Larsen 1998); cited from earlier work
platelet aggregation [5] = settings: in vivo (Willumsen 1998); cited from earlier work
[6] = Larsen 1998; cited from earlier work

CC/C=C\C/C=C\C/C=C\C/C=C\C/C=C\C/C=C\CCC(=O)O [DHA, (all-Z)-4,7,10,13,16,19-docosahexaenoic acid]
change of body weight [1]: completely stopped the weight gain and even led to reduction of body weight
binding capacity to the PPARα receptor (PPARα receptor): highest binding capacity

CC/C=C\C/C=C\C/C=C\C/C=C\C/C=C\CCCC(=O)OCC [EPA EE]
plasma free fatty acid [2]: had no effect

CC/C=C\C/C=C\C/C=C\C/C=C\C/C=C\CCCC(=O)O [EPA, (all-Z)-5,8,11,14,17-eicosapentaenoic acid]
binding capacity to the PPARα receptor (PPARα receptor): highest binding capacity

CC/C=C\C/C=C\C/C=C\C/C=C\C/C=C\C/C=C\CC(C)C(=O)OCC (stereo not drawn) [PRB-1, α-methyl docosahexaenoic acid ethyl ester]
Body wt. gain ([3]; 4 months, 0.15% concentration): 22.9 ± 1.1 grams
AUCglucose ([3]; intraperitoneal glucose tolerance test, 1.5% concentration): 913 ± 68 mM × 180 min
Insulin ([3]; 4 months, 0.15% concentration): 3.50 ± 0.29 ng/mL
Insulin ([3]; 4 months, 1.5% concentration): 2.73 ± 0.33 ng/mL

CC/C=C\C/C=C\C/C=C\C/C=C\C/C=C\C/C=C\CC(SC)C(=O)OCC (stereo not drawn) [PRB-6, α-tiomethyl docosahexaenoic acid ethyl ester]
release of luciferase from transfected cells (PPARγ): significantly higher release of luciferase

CC/C=C\C/C=C\C/C=C\C/C=C\C/C=C\C/C=C\CC(CC)(CC)C(=O)OCC [PRB-8, α,α di-ethyl docosahexaenoic acid ethyl ester]
body weight (BW) ([3]; 2 months intervention, 1.5%, controls 29.6±0.9): 28.0±0.7 grams
AUC ([3]; 2 months intervention, 1.5%, controls 1074±91): 1031±104

CC/C=C\C/C=C\C/C=C\C/C=C\C/C=C\CCC(CC)C(=O)O (stereo not drawn) [α-ethyl EPA]
activation of the nuclear receptor PPARα (PPARα): equal strength as α-methyl EPA

CC/C=C\C/C=C\C/C=C\C/C=C\C/C=C\CCC(C)C(=O)O (stereo not drawn) [α-methyl EPA]
inhibition of platelet aggregation (platelet aggregation [4]): stronger inhibitor of platelet aggregation than EPA
inhibition of platelet aggregation (platelet aggregation [5]): stronger inhibitor of platelet aggregation than EPA
incorporation into phospholipids and triglycerids [6]: is incorporated into phospholipids and triglycerids

CC/C=C\C/C=C\C/C=C\C/C=C\C/C=C\CC(C)CC(=O)O (stereo not drawn) [β-methyl EPA]
incorporation into phospholipids and triglycerids [6]: is incorporated into phospholipids and triglycerids
